Patent US5401769A, “Dibenzofuranyl N-alkyl carbamates” (priority 1994, dated 1995)

How the values were obtained:
[1] = tested on: absorption of 14C-cholesterol; test: In vivo cholesterol absorption, [4-14C] cholesterol, serum radioactivity at six hours, normal rats; details: 10 mg/kg oral, 6 hr, normal rat, percent decrease compared to control
Experimental: (§1) The in vitro and in vivo standard experimental test procedures used to establish the ability of the anticholesterolemic compounds of this invention to prevent cholesteryl ester formation and to inhibit cholesterol absorption, are given below and the biological results are presented in Table I.
In Vivo Assay: The in vivo cholesterol absorption studies were conducted in normal rats by oral administration of the compound being tested in propylene glycol and olive oil followed by oral administration of [4-^14 C] cholesterol in propylene glycol and olive oil, otherwise following the procedure of Cayen et al., J. Lipid Res. 20, 162 (1979). The serum radioactivity was measured at six hours after dosing. The results of this study are reported in the following Table I as percent decrease compared to control.

[2] = target: T1, cholesterol ester hydrolase (CEH) / cholesterol esterase (EC 3.1.1.13) (Bos taurus, UniProt P30122); test: In vitro inhibition of cholesteryl ester formation by cholesterol esterase (CEH); assay type: biochemical, bovine
T1 construct: purchased Sigma Company, St. Louis, Mo., U.S.A. C-1892; host or cells: bovine pancreas
T1 sequence (P30122 19-597): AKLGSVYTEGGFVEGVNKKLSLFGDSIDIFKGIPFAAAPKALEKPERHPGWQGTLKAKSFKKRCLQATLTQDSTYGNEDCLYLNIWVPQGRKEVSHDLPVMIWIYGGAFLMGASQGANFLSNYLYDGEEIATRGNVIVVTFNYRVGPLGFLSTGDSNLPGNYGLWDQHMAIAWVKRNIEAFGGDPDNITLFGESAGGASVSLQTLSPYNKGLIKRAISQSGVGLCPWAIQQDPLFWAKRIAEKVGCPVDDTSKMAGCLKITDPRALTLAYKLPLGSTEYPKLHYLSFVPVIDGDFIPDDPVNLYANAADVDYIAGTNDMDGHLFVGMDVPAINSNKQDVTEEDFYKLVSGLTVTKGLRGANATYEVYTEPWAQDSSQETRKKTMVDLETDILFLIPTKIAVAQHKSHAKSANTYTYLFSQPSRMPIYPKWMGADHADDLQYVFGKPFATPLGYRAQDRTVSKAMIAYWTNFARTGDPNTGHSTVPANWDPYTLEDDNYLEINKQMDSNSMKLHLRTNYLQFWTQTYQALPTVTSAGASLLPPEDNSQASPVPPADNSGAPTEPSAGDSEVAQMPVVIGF
From the text: as §1
In Vitro Test Procedure: The ability of the compounds of this invention to inhibit the formation of cholesteryl esters and thereby interfere with and prevent assimilation of cholesterol into the lymphatic system and ultimately the blood stream was established by incubating the compounds at 37° C. with a mixture of cholesterol and oleic acid in the presence of buffered cholesterol esterase [(EC 3.1.1.13) Sigma Company, St. Louis, Mo., U.S.A., No. C-1892, from bovine pancreas] and measuring the amount of ester formed, according to the procedure of Field, J. of Lipid Research, 25, 389 (1984).

CCNC(=O)Oc1ccc2oc3ccccc3c2c1 [Example 8, Ethylcarbamic acid 2-dibenzofuranyl ester]
In Vivo Results Effect on Absorption of 14C-chol, % Decrease [1]: 18% | IC50 [2]: 18.9 µM

CCCCNC(=O)Oc1ccc2oc3ccccc3c2c1 [Example 1, Butylcarbamic acid 2-dibenzofuranyl ester]
IC50 [2]: 25 µM

O=C(NCCCCc1ccccc1)Oc1ccc2oc3ccccc3c2c1 [Example 4, (4-Phenylbutyl)carbamic acid 2-dibenzofuranyl ester]
In Vivo Results Effect on Absorption of 14C-chol, % Decrease [1]: 44% | IC50 [2]: 68 µM

CNC(=O)Oc1ccc2oc3ccccc3c2c1 [Example 5, Methylcarbamic acid 2-dibenzofuranyl ester]
IC50 [2]: 42 µM

CC(C)CCCC(C)NC(=O)Oc1ccc2oc3ccccc3c2c1 (centres unmarked) [Example 2, (1.5-Dimethylhexyl) carbamic acid 2-dibenzofuranyl ester]
In Vivo Results Effect on Absorption of 14C-chol, % Decrease [1]: 33% | IC50 [2]: 3 µM

CCCCCCNC(=O)Oc1ccc2oc3ccccc3c2c1 [Example 3, Hexylcarbamic acid 2-dibenzofuranyl ester]
In Vivo Results Effect on Absorption of 14C-chol, % Decrease [1]: 37% | IC50 [2]: 9.3 µM

CCCCCCCCCCCCNC(=O)Oc1ccc2oc3ccccc3c2c1 [Example 7, Dodecylcarbamic acid 2-dibenzofuranyl ester]
In Vivo Results Effect on Absorption of 14C-chol, % Decrease [1]: 13% | IC25 ([2]; IC25 printed in the IC50 column, 37° C., cholesterol and oleic acid, cholesterol esterase from bovine pancreas): 7.2 µM

O=C(NCC1CCCCC1)Oc1ccc2oc3ccccc3c2c1 [Example 6, (Cyclohexylmethyl)carbamic acid 2-dibenzofuranyl ester]
In Vivo Results Effect on Absorption of 14C-chol, % Decrease [1]: 43% | IC50 [2]: 13.8 µM
